This is an account of results in publication PMC8386120, “Crystal Structure of Inorganic Pyrophosphatase From Schistosoma japonicum Reveals the Mechanism of Chemicals and Substrate Inhibition” (Frontiers in Cell and Developmental Biology, 2021).

For assay [1], the target named is T1, SjPPase (Schistosoma japonicum, UniProt Q5DE13).
T1 sequence (Q5DE13 1-287): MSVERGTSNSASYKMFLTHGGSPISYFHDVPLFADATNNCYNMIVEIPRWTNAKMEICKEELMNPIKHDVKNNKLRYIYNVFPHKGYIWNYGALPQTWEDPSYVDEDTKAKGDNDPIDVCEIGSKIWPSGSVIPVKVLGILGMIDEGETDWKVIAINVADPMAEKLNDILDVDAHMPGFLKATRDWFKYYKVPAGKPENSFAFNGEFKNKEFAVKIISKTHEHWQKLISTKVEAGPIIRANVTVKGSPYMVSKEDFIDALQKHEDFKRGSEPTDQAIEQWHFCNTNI
The assay is described as follows: Pi release, PiPer fluorescence phosphate assay. In kind it is biochemical. Also noted: homodimer; crystal residues 1-284 and 1-283. The settings on record: 1 and 2 mM MDP; PPi substrate, Mg2+, 25 C.

Assay [2] addresses T1, SjPPase. The settings on record: Co2+ bound; active site, P2 site (F intermediate).
The target of assay [3] is Schistosoma japonicum soluble inorganic pyrophosphatase (recombinant SjPPase) (Schistosoma japonicum). The assay is described as follows: crystal structure; X-ray crystal structures of apo-SjPPase (4QMB) and of SjPPase with Pi and cobalt ions (4QLZ); space group P32, two molecules in the asymmetric unit; first crystals from 0.2 M sodium malonate, 20% PEG 3,350, later optimised; protein at 16-18 mg/ml.

With `O=P(O)(O)CP(=O)(O)O` [methylene diphosphonic acid], at SjPPase [1], the inhibition result is “inhibitors NaF and MDP inhibited the enzymatic activity of SjPPase”.

Take `O=P(O)(O)O` [orthophosphate]: the “X-ray crystal structure, 2.33 A” value on SjPPase [2] was “the Pi in the SjPPase-Pi complex structure is at the P2 site”.

Broadly, the stoichiometry N is a count of units in the complex or per binding partner. With “Schistosoma japonicum soluble inorganic pyrophosphatase (recombinant SjPPase) (enzyme)”, the stoichiometry N in assay [3] was determined as 2.
